Read-outs that look alike come from different tables or passages of the source.
Experiments:
RIL-175 HCC vasculature = test: Tumor vessel and hypoxia immunofluorescence (CD31, α-SMA, CA-IX) in RIL-175 orthotopic HCC; type: in vivo, mouse; details: regorafenib 10 mg/kg; day 12; vs control
Method: Figure 1 Dose-dependent effects of regorafenib on vascular normalization when used in combination with programmed cell death protein 1 (PD1) blockade in RIL-175 hepatocellular carcinoma (HCC) model. (A, B) Mice with established (4–5 mm in diameter) HCCs were treated with anti-PD1 therapy (P) alone or in combination with 5 mg/kg (R5), 10 mg/kg (R10) or 20 mg/kg (R20) regorafenib versus control (C) (n=8 mice per group, 1-week treatment). We used immunofluorescence (IF) for evaluation of tumor vessels by CD31 and α-smooth muscle actin (α-SMA) immunostaining. […] Representative IF of tumor sections after staining for CD31 (for endothelial cells in green) and α-SMA (for pericytes in red) and DAPI counterstaining (in blue). Five random fields from the tumor center (defined as no inclusion of the edge of the tumor) were evaluated for each sample. Data represent mean values. Scale bars=500 µm. (C) Representative IF confocal microscopy images of tumor vessels using and CD31 staining (green) and tissue hypoxia using CA-IX staining (red) of whole liver sections; scale bars=2 mm. […] (E) Representative IF confocal microscopy images of mature tumor vessels using CD31 staining (green) and α-SMA staining (red) of RIL-175 tumors; scale bars, 100 µm.

RIL-175 cells = test: CXCL10 secretion by RIL-175 cells in vitro (ELISA); type: cell-based, mouse; details: 36 hours
Text: To determine if CXCL10 was produced by murine HCC cells in response to regorafenib treatment, we next cultured RIL-175 cells with various concentration of regorafenib in vitro and measured the CXCL10 levels by ELISA. […]
treated by regorafenib as standard of care (HCC) (using the DFCI Protocol No.: 13-416 “Collection of Specimens and Clinical Data for Patients with Known or Suspected Solid Tumors”, PI, Dr. Juric, MGH) or in a phase I clinical trial of regorafenib monotherapy in acute myeloid leukemia (AML) patients (ClinicalTrials.gov Identifier: NCT03042689, PI, Hobbs, MGH). Both protocols have been IRB approved, and written consent was obtained from all patients.
Protein analyses. Western blotting was performed using antibodies against Stat1 (D1K9Y), phosphorylated (p)-Stat1 (Tyr701) (D4A7), Stat3 (79D7), p-Stat3 (Ser727) (Cell Signaling Technology, Danvers, MA), and IFN-γ (EPR1108) (Abcam, Cambridge, MA). Multiplexed protein array analysis was performed for protein extracts from whole tumors, using V-PLEX Proinflammatory Panel 1 Mouse Kit, V-PLEX Cytokine Panel 1 Mouse Kit and V-PLEX […] (Meso-Scale Discovery, Rockville, MD). For cell supernatant collection, 1x10^6 of RIL-175 cells were cultured in DMEM medium with 2% FBS and regorafenib was given in a various dose.
Supernatant was collected after 36hr of incubation and multiplexed protein array analysis was done using the same kit above.
Flow cytometry analysis. Tumor tissues were extracted from the mice, weighted and minced with a scalpel. Hank’s buffered salt solution (HBSS) with 1.5mg/ml of collagenase and hyaluronidase was added to the minced tissues and incubated for 30 min at 37°C. After incubation, digested tissues were passed through the 70μm cell strainer and washed with PBS with 2% BSA. After preparation, cells were suspended in 2ml of PBS with 2% BSA, then counted using a cell counting plate (Kova slide) (if the final concentration of cell exceeded 10^7 cells/ml, a dilution factor was applied). One hundred microliters of this suspension were used per subsequent flow cytometry staining. […]

HCA1 cells = test: CXCL10 secretion by HCA1 cells in vitro; type: cell-based, mouse; details: 36hr; compared with increase in RIL-175 cells
[1] = in vivo
Method: (§1) From the orthotopic HCC and liver damage mouse models described above, blood samples were collected at 1, 4, 7 and 24 hours after once-daily oral administration of 5, 10 and 20 mg/kg regorafenib, respectively, for 5 days. Anti-PD1 antibody was given on days 1 and 4 with dose of 10 mg/kg by intraperitoneal injection. Blood samples were drawn from four to five animals per sampling time point. Regorafenib and its active metabolites M-2, M-4 and M-5 were analyzed in plasma samples using a validated bioanalytical liquid chromatography-tandem mass spectrometry.[25 33] Pharmacokinetic (PK) parameters were derived from the area under the plasma concentration versus time curve (AUC) using a non-compartmental analysis.
(§2) In addition, we evaluated PK parameters in HCC-bearing mice after regorafenib administration alone at doses of 5, 10 and 20 mg/kg or in combination with anti-PD1 therapy at the 10 mg/kg regorafenib dose for 5 days to achieve a steady state.

in vivo = details: C57Bl/6, mouse, po; for AUC: Plasma AUC; for Cmax: Plasma Cmax
Method: as §1, §2

[2] = Pharmacokinetic analysis of regorafenib and metabolites in plasma and tumor tissue of mice with HCC and liver damage; details: n=4-5 mice
Method: as §1, §2

Question: For CNC(=O)c1cc(Oc2ccc(NC(=O)Nc3ccc(Cl)c(C(F)(F)F)c3)c(F)c2)ccn1 [regorafenib], which “Hypoxic tissue area measured by CA-IX staining” value (RIL-175 HCC vasculature) is on record?
Answer: Its value is “significantly decreased”.

Question: What about the MVD (RIL-175 HCC vasculature) of the same compound?
Answer: The MVD was “significant increase”.

Question: And the “Regorafenib concentration at peak CXCL10 secretion” value (RIL-175 cells)?
Answer: Its value is 1 µM.

Question: And the “Level of CXCL10 secreted by RIL-175 cells” value (RIL-175 cells; various concentrations, n=6)?
Answer: Its value is “significantly increased”.

Question: And the “Level of CXCL10 secreted by HCA1 cells” value (HCA1 cells)?
Answer: The value was “to a lesser extent”.

Question: What about the “Tumor AUC” value ([1]; C57Bl/6, mouse, po, 5 mg/kg) of the same compound?
Answer: Its value is 2320 ng·h/mL.

Question: What about the “Tumor AUCnorm” value ([1]; C57Bl/6, mouse, po, 5 mg/kg) of the same compound?
Answer: The value was 0.465 kg·h/L.

Question: And the “Tumor Cmax” value ([1]; C57Bl/6, mouse, po, 5 mg/kg)?
Answer: Its value is 191 µg/kg.

Question: What about the “Plasma AUC” value ([1]; C57Bl/6, mouse, po, 10 mg/kg) of the same compound?
Answer: Its value is 2140 ng·h/mL.

Question: And the “Plasma Cmax” value ([1]; C57Bl/6, mouse, po, 10 mg/kg)?
Answer: The value was 190 ng/mL.

Question: What about the “Tumor AUC” value ([1]; C57Bl/6, mouse, po, 10 mg/kg) of the same compound?
Answer: The value was 4670 ng·h/mL.

Question: What about the “Tumor AUCnorm” value ([1]; C57Bl/6, mouse, po, 10 mg/kg) of the same compound?
Answer: The value was 0.467 kg·h/L.

Question: And the “Tumor Cmax” value ([1]; C57Bl/6, mouse, po, 10 mg/kg)?
Answer: The value was 291 µg/kg.

Question: What about the “Tumor AUC” value ([1]; C57Bl/6, mouse, po, 20 mg/kg) of the same compound?
Answer: The value was 7930 ng·h/mL.

Question: And the “Tumor AUCnorm” value ([1]; C57Bl/6, mouse, po, 20 mg/kg)?
Answer: Its value is 0.396 kg·h/L.

Question: What about the “Tumor Cmax” value ([1]; C57Bl/6, mouse, po, 20 mg/kg) of the same compound?
Answer: The value was 575 µg/kg.

Question: And the “Cmax in the tumor tissue, combination group versus R10 group” value ([1]; mouse)?
Answer: The value was “higher”.

Question: And the “Plasma AUC0–24 and Cmax versus dose” value ([1]; mouse)?
Answer: The value was “dose-proportional”.

Question: And the “Tumor AUC0–24 and Cmax versus dose” value ([1]; mouse)?
Answer: Its value is “dose-proportional increase”.

Question: What about the “Plasma AUCnorm” value ([1]; mouse, po, 5 mg/kg) of the same compound?
Answer: The value was 0.290 kg·h/L.

Question: What about the “Plasma AUCnorm” value ([1]; mouse, po, 10 mg/kg) of the same compound?
Answer: The value was 0.241 kg·h/L.

Question: What about the “Plasma AUCnorm” value ([1]; mouse, po, 20 mg/kg) of the same compound?
Answer: Its value is 0.287 kg·h/L.

Question: What about the AUC (in vivo; 5 mg/kg) of the same compound?
Answer: The AUC was 1450 ng·h/mL.

Question: And the Cmax (in vivo; 5 mg/kg)?
Answer: The Cmax was 108 ng/mL.

Question: What about the AUC (in vivo; 10 mg/kg) of the same compound?
Answer: The AUC was 2160 ng·h/mL.

Question: What about the Cmax (in vivo; 10 mg/kg) of the same compound?
Answer: The Cmax was 201 ng/mL.

Question: What about the Tmax (in vivo; 10 mg/kg, Plasma Tmax) of the same compound?
Answer: The Tmax was 1 h.

Question: What about the Tmax (in vivo; 10 mg/kg, Tumor Tmax) of the same compound?
Answer: The Tmax was 7 h.

Question: What about the AUC (in vivo; 20 mg/kg) of the same compound?
Answer: The AUC was 5750 ng·h/mL.

Question: And the Cmax (in vivo; 20 mg/kg)?
Answer: The Cmax was 485 ng/mL.

Question: What about the “Plasma maximum concentration (Cmax), R10 alone versus R10+P” value [2] of the same compound?
Answer: The value was “No difference”.
